What was measured:
FLT3 ITD, F691L = target: T1, FLT3 ITD, F691L (Homo sapiens, UniProt P36888, F691L, form not given); assay: DiscoverX KINOMEscan competition binding, FLT3 ITD, F691L; conditions: no ATP
T1 construct: fused on or other part: DNA tag for qPCR read-out (T7 phage fusion, or DNA-tagged kinase made in HEK-293 cells)
T1 sequence (P36888 1-993 F691L): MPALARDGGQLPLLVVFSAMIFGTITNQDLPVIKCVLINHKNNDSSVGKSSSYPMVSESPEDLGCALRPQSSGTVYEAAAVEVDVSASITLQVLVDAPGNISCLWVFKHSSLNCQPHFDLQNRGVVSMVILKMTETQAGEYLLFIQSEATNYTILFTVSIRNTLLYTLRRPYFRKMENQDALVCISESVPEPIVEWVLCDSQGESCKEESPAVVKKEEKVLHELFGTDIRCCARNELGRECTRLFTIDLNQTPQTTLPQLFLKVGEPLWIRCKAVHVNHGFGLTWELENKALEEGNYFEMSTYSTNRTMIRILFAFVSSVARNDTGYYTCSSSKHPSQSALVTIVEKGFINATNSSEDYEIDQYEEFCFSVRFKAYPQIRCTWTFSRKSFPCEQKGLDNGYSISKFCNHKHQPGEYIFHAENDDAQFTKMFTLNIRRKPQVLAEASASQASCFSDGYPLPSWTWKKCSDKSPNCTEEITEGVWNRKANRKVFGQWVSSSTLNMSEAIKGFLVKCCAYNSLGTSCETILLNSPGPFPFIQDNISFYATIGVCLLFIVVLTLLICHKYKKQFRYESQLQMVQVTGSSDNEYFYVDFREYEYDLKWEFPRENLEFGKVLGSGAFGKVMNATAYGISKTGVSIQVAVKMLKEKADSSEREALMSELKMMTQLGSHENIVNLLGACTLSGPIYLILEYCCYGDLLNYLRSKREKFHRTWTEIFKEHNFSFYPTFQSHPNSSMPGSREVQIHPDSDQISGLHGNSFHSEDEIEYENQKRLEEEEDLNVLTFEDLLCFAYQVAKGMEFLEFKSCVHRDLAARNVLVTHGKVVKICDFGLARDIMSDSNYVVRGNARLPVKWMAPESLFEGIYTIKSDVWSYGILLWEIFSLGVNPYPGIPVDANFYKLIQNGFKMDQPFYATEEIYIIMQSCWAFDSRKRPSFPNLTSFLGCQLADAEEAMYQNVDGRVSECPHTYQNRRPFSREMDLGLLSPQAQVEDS
From the text: (§1) Kinase binding data were obtained for various exemplary compounds prepared according to Examples 2-15 using the DiscoverX KINOMEscan® active site-directed competition binding site-directed assay protocol described below. […] As a result, the data report thermodynamic interaction affinities (Kd values), rather than IC50 values that are dependent on ATP concentrations. The assay uses a DNA-tagged version of the protein kinase, and an immobilized ligand bound to a solid support. Compounds that directly or indirectly prevent kinase binding to the immobilized ligand reduce the amount of kinase captured on the solid support, which is detected using an ultra-sensitive qPCR method. Affinity constants reported from the assay have been reported to be independent of the immobilized ligand used that is coupled to the solid support (See supplemental information in Fabian, M. A. et. al., (2005) Nat. […] Wodicka, L. […] Biol. 17, 1241-1249.) Kinase-tagged T7 phage strains were prepared in an E. coli host derived from the BL21 strain. E. coli were grown to log-phase and infected with T7 phage and incubated with shaking at 32° C. until lysis. […] Kds were determined using an 11-point 3-fold compound dilution series with three DMSO control points. […] The kinase concentration in the eluates was measured by qPCR. Binding constants (Kds) were calculated with a standard dose-response curve using the Hill equation. […]

FLT3 R834Q = target: T2, FLT3 R834Q (Homo sapiens, UniProt P36888, R834Q); assay: DiscoverX KINOMEscan competition binding, FLT3 R834Q; conditions: no ATP
T2 construct: purchased DiscoverX (KINOMEscan); host or cells: E. coli (T7 phage) or HEK-293
T2 sequence (P36888 27-993 R834Q): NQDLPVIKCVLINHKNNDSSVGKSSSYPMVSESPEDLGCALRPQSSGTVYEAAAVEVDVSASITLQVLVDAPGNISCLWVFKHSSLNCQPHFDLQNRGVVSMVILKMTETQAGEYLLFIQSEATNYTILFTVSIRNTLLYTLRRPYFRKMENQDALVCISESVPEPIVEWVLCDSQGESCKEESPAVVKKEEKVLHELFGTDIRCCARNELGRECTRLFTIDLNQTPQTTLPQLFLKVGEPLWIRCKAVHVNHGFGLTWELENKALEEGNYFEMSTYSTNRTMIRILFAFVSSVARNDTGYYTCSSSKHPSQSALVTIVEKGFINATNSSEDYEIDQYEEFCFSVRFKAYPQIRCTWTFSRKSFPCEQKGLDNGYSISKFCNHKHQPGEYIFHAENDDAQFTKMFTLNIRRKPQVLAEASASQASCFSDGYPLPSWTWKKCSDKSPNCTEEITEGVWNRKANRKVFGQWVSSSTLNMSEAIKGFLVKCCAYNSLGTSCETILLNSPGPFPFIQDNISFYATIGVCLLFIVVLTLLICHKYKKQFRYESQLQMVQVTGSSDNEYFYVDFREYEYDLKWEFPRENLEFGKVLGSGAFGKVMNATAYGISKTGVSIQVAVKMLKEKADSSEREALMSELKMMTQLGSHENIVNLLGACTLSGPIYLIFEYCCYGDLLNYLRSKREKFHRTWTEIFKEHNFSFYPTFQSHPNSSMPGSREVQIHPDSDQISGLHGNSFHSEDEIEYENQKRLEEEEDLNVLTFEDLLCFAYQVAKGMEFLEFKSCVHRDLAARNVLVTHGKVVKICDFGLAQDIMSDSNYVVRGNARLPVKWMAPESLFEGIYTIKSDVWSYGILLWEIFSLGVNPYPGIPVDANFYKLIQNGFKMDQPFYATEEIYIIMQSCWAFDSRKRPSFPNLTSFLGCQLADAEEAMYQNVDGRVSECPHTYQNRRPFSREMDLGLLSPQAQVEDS
From the text: as §1

COc1cc2ncc(-c3nc(N[C@H]4CNCC[C@@H]4F)c(F)cc3F)n2nc1C1CCC1 [Compound 15a, 6-(6-cyclobutyl-7-methoxyimidazo[1,2-b]pyridazin-3-yl)-3,5-difluoro-N-((3S,4S)-4-fluoropiperidin-3-yl)pyridin-2-amine]
Kd (FLT3 ITD, F691L): < 0.17 nM
Kd (FLT3 R834Q): 0.81 nM
